From the kinase profiling compilation of Christmann-Franck et al. (2016)

How the values were obtained:
BRSK1 (human) = BRSK1 (human) (UniProt Q8TDC3)
NUAK1 (human) = NUAK1 (human) (UniProt O60285)
TTK (human) = TTK (human) (UniProt P33981)
[1] = system: ABL1 (human), P00519 [E255K]; assay: KINOMEscan competition binding; details: compound 10.0 µM
[2] = system: ABL1 (human), P00519 [Y253F]; assay: KINOMEscan competition binding; details: compound 10.0 µM
[3] = system: EGFR (human), P00533 [746-750 del]; assay: KINOMEscan competition binding; details: compound 10.0 µM
[4] = system: EGFR (human), P00533 [G719C]; assay: KINOMEscan competition binding; details: compound 10.0 µM
[5] = system: EGFR (human), P00533 [G719S]; assay: KINOMEscan competition binding; details: compound 10.0 µM
[6] = system: EGFR (human), P00533 [L861Q]; assay: KINOMEscan competition binding; details: compound 10.0 µM
[7] = system: EGFR (human), P00533 [P753S; 747-752 del]; assay: KINOMEscan competition binding; details: compound 10.0 µM
[8] = system: KIT (human), P10721 [V559D/V654A]; assay: KINOMEscan competition binding; details: compound 10.0 µM
MARK2 (human) = MARK2 (human) (UniProt Q7KZI7); assay: KINOMEscan competition binding; details: compound 10.0 µM
PIK3CA (human) = PIK3CA (human) (UniProt P42336); assay: KINOMEscan competition binding; details: compound 10.0 µM
[9] = system: PIK3CA (human), P42336 [H1047Y]; assay: KINOMEscan competition binding; details: compound 10.0 µM
PIK3CG (human) = PIK3CG (human) (UniProt P48736); assay: KINOMEscan competition binding; details: compound 10.0 µM
MTOR (human) = MTOR (human) (UniProt P42345)
INSR (human) = INSR (human) (UniProt P06213)
MYLK3 (human) = MYLK3 (human) (UniProt Q32MK0)
ABL1 (human) = ABL1 (human) (UniProt P00519); assay: KINOMEscan competition binding; details: compound 10.0 µM
[10] = system: ABL1 (human), P00519 [F317I]; assay: KINOMEscan competition binding; details: compound 10.0 µM
[11] = system: ABL1 (human), P00519 [F317L]; assay: KINOMEscan competition binding; details: compound 10.0 µM
[12] = system: ABL1 (human), P00519 [H396P]; assay: KINOMEscan competition binding; details: compound 10.0 µM

TTK (human), sequence (P33981 whole entry, looked up): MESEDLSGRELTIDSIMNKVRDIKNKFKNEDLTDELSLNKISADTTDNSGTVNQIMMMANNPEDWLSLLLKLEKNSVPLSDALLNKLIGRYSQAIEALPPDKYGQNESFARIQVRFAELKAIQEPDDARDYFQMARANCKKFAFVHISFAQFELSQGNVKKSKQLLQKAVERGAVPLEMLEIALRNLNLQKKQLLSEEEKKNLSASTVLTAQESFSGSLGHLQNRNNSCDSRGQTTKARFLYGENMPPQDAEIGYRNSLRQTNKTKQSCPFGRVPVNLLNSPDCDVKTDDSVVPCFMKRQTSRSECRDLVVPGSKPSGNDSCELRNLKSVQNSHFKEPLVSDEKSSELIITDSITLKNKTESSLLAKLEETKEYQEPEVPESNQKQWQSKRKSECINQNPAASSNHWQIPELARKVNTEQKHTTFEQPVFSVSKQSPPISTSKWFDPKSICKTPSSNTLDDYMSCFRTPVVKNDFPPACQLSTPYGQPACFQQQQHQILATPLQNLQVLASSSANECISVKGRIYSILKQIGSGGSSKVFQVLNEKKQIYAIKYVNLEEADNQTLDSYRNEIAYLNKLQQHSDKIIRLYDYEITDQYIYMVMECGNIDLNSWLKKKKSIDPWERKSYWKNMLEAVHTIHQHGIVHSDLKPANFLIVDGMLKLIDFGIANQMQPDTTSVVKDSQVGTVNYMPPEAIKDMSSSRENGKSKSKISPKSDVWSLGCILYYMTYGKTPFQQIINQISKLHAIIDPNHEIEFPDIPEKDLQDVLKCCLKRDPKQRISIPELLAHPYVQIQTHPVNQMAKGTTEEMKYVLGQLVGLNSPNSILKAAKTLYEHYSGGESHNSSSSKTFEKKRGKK
INSR (human), sequence (P06213 whole entry, looked up): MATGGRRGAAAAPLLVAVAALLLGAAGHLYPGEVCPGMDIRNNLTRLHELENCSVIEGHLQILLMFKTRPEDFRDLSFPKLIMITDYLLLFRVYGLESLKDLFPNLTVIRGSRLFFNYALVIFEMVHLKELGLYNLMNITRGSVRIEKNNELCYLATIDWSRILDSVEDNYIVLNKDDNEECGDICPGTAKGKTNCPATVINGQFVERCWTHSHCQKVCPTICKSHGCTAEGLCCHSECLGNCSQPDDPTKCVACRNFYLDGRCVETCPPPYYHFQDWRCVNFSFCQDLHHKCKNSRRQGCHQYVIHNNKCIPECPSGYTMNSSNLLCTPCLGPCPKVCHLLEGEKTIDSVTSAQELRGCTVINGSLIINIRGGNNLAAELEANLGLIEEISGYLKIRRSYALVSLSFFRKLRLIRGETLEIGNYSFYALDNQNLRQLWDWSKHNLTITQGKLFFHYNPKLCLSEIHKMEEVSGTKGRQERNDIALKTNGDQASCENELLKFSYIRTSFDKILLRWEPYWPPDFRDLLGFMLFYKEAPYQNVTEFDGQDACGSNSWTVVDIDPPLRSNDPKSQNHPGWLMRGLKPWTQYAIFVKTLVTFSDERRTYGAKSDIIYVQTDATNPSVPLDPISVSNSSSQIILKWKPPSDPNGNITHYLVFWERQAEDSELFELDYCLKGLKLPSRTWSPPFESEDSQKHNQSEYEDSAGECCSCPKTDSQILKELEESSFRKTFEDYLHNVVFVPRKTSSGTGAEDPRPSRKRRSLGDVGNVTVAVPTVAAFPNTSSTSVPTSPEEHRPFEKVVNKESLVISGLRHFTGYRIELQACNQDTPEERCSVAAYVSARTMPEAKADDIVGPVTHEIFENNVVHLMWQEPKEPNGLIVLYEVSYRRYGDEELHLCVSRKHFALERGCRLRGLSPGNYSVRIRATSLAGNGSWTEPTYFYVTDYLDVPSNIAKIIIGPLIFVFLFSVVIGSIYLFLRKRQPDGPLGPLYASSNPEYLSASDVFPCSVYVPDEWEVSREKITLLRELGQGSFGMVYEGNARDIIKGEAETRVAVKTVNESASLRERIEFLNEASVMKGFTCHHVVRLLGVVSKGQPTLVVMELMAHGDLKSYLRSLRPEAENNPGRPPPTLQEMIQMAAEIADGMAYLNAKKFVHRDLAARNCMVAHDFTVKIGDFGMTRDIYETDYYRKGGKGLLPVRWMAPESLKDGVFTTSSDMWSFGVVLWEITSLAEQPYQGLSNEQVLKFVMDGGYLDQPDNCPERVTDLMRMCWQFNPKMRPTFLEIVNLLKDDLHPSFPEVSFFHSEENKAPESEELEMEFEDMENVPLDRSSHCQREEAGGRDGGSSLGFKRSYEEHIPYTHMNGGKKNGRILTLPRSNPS
NUAK1 (human), sequence (O60285 whole entry, looked up): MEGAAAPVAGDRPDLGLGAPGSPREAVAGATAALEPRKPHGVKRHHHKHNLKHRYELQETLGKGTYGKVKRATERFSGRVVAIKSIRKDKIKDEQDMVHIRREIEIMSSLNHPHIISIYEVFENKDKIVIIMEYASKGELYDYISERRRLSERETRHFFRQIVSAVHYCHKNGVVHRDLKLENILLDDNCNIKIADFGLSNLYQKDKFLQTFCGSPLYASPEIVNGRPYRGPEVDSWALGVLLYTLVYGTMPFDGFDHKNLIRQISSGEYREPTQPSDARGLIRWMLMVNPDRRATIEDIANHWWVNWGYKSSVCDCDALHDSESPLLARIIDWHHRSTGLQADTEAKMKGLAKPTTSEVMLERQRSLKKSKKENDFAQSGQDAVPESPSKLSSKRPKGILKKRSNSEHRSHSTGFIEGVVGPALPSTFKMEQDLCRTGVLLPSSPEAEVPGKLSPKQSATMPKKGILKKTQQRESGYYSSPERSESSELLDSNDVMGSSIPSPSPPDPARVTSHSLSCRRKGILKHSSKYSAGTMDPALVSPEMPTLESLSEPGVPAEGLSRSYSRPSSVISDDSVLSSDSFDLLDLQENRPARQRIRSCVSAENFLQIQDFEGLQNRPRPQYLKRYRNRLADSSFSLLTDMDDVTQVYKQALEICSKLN
BRSK1 (human), sequence (Q8TDC3 whole entry, looked up): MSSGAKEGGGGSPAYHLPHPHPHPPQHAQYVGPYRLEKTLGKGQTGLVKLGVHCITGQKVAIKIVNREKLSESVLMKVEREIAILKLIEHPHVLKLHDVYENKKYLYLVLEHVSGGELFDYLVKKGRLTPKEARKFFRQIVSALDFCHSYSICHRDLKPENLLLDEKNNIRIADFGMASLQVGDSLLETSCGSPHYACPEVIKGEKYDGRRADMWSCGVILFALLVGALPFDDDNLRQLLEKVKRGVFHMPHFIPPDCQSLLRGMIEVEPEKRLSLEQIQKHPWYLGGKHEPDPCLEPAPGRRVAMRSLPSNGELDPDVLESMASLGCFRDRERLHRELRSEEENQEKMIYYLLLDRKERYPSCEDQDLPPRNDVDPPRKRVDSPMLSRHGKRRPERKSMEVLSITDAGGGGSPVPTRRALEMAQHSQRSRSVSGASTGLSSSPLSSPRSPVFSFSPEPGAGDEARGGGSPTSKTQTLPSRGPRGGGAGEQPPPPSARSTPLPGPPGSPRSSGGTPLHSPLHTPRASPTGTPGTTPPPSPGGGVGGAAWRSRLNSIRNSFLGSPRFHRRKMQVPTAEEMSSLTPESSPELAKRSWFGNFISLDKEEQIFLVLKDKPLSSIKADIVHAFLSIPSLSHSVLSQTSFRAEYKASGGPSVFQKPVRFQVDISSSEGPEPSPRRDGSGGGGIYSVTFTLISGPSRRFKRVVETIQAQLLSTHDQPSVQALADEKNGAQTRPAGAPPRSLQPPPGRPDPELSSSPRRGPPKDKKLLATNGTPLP
MARK2 (human), sequence (Q7KZI7 whole entry, looked up): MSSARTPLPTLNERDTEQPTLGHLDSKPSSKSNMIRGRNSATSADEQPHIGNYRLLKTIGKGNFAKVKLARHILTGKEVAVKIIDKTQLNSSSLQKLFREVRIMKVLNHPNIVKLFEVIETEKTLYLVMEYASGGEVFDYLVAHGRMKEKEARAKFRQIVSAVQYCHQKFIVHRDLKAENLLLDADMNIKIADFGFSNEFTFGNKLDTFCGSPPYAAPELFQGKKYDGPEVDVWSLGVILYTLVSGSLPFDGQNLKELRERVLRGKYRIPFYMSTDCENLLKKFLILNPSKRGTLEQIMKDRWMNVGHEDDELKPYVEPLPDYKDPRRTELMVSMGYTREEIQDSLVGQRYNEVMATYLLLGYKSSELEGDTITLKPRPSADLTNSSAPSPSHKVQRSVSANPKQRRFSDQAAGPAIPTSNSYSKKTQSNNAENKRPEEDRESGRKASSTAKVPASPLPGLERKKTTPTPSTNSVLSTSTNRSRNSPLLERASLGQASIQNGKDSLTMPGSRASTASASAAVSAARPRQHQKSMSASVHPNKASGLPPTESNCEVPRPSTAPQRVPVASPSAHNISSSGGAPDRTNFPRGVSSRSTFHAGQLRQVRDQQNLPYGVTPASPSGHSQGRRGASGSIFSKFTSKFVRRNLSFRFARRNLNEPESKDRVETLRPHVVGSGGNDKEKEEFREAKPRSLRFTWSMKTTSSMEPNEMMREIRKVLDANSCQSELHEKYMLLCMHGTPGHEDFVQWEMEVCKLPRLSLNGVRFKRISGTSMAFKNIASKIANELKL

Row | Compound | per cent of control (BRSK1 (human); compound 10.0 µM) [%] | per cent of control (NUAK1 (human); compound 1.0 µM) [%] | per cent of control (NUAK1 (human); compound 10.0 µM) [%] | per cent of control (TTK (human); compound 1.0 µM) [%] | per cent of control (TTK (human); compound 10.0 µM) [%] | kinase still bound, per cent of control [1] [%] | kinase still bound, per cent of control [2] [%] | kinase still bound, per cent of control [3] [%] | kinase still bound, per cent of control [4] [%] | kinase still bound, per cent of control [5] [%] | kinase still bound, per cent of control [6] [%] | kinase still bound, per cent of control [7] [%] | kinase still bound, per cent of control [8] [%] | kinase still bound, per cent of control (MARK2 (human)) [%] | kinase still bound, per cent of control (PIK3CA (human)) [%] | kinase still bound, per cent of control [9] [%] | kinase still bound, per cent of control (PIK3CG (human)) [%] | per cent of control (INSR (human); compound 1.0 µM) [%] | per cent of control (INSR (human); compound 10.0 µM) [%] | other results
1 | COC(=O)Nc1ccc(-c2nc(N3CCOCC3)c3cnn(C4CCN(C(=O)OC)CC4)c3n2)cc1 | 94 | 94 | 82 | 91 | 93 | 100 | 90 | 100 | 100 | 95 | 100 | 86 | 100 | 100 | 5.4 | 7.8 | 78 |  |  | IC50 (MTOR (human)): 15.8 nM
2 | CC(C)n1nc(-c2cc3cc(O)ccc3[nH]2)c2c(N)ncnc21 |  |  |  |  |  |  |  |  |  |  |  |  |  |  |  |  |  | 69 | 58 | 
3 | COc1ccc(-c2ccc3c(N4CCOCC4)nc(N4C[C@@H](C)O[C@@H](C)C4)nc3n2)cc1CO |  |  |  |  |  | 100 | 100 | 100 | 100 | 100 | 83 | 100 | 100 | 94 | 2.5 | 3.2 | 23 | 81 | 67 | per cent of control (MYLK3 (human); compound 1.0 µM): 82%; per cent of control (MYLK3 (human); compound 10.0 µM): 104%
4 | CCC(=O)N1CCN(c2ccc(-n3c(=O)ccc4cnc5ccc(-c6cnc7ccccc7c6)cc5c43)cc2C(F)(F)F)CC1 | 94 | 101 | 79 | 79 | 71 |  |  |  |  |  |  |  |  |  |  |  |  |  |  | per cent of control (BRSK1 (human); compound 1.0 µM): 99%; kinase still bound, per cent of control (ABL1 (human)): 60%; kinase still bound, per cent of control [10]: 100%; kinase still bound, per cent of control [11]: 100%; kinase still bound, per cent of control [12]: 68%
